The text below walks through data of article PMC5103075, “An immunostimulatory dual-functional nanocarrier that improves cancer immunochemotherapy” (Nature Communications, 2016).

The test system of data set [1] is 4T1.2 cells. Description: MTT cytotoxicity in 4T1.2 cells. The class given is cell-based, mouse. Particulars: 4T1.2, 72 h; for IC50: means±s.e.m. The protocol: (§1) 4T1.2 or PC3 cells at 2,000 cells/well were seeded in 96-well plates, respectively. […] After 3 days of incubation, 20 μl of 3-(4, 5-dimethylthiazol-2-yl)-2,5-diphenyltetrazoliumbromide (MTT) in DPBS (5 mg ml^−1) was added to each well and cells were further incubated for 2 h. Medium was removed and MTT formazan crystals were solubilized by 100 μl of DMSO per well. Absorbance of each well was measured with a microplate reader at wavelength of 550 nm. Untreated wells were used as controls. Cell viability was calculated as ((ODtreated−ODblank)/(ODcontrol−ODblank) × 100%).

Data set [2] has as its system PC3 cells. Kind of data set: MTT cytotoxicity in PC3 cells. Particulars: Homo sapiens, PC-3, PC3, 72 h, means±s.e.m. Format: cell-based. The protocol:
as §1

Values after ≈ are worked out from the molar mass of the structure shown. Where two headings read alike, the source gives them in different places.

As to `COc1cccc2c1C(=O)c1c(O)c3c(c(O)c1C2=O)C[C@@](O)(C(=O)CO)C[C@@H]3O[C@H]1C[C@H](N)[C@H](O)[C@H](C)O1` [DOX, doxorubicin], the half-inhibitory concentration (IC50) in data set [1] is 0.2686 ± 0.02728 µg/mL (≈ 0.494 µM).

On to `CC(=O)O[C@H]1C(=O)[C@@]2(C)[C@H]([C@H](OC(=O)c3ccccc3)[C@]3(O)C[C@H](OC(=O)[C@H](O)[C@@H](NC(=O)c4ccccc4)c4ccccc4)C(C)=C1C3(C)C)[C@]1(OC(C)=O)CO[C@@H]1C[C@@H]2O` [PTX, Paclitaxel], for which the “Cytotoxicity (tumour cell growth inhibition)” value in data set [1] (Fig. 3d) was “inhibited the tumour cell growth in a concentration-dependent manner”. Further, the IC50 in data set [1] (Mus musculus, read-out: IC50) was determined as 0.245 ± 0.0211 µg/mL (≈ 0.286 µM); in data set [2] it was 0.101 ± 0.0112 µg/mL (≈ 0.119 µM).
